Reference: patent EP0807435A2, “Indirect HMG-CoA-reductase inhibitor” (Sertürner Arzneimittel GmbH, priority 1996, dated 1997)

Key:
[1] = rabbits, blood lipids raised by cholesterol diet (200 mg Cholesterin pro kg Körpergewicht über 60 Tage); Chem. Abstr. 76; cited from earlier work
[2] = system: kultivierten Rattenhepatocyten; test: Incorporation of 14C-labelled acetate into the non-saponifiable neutral lipid fraction (cholesterol de novo synthesis); format: cell-based, Ratten
Method: Erfindungsgemäß wurde überraschenderweise an Hand von Messungen des Einbaus von ^14[…] in die Fraktion der nicht-verseifbaren neutralen Lipide von kultivierten Rattenhepatocyten nachgewiesen, daß Luteolin, seine Derivate und […] Verbindungen konzentrationsabhängig die Neusynthese von Cholesterin in […]. Bei Verwendung eines Luteolin-7-0-glucosid-[…] Kulturmedium in einer Konzentration zwischen 0,02 und 0,1 mg/ml […] (Plateau) von ca. 20% ein, ohne daß zytotoxische Wirkungen nachweisbar wären. Bei höheren Konzentrationen (bis 1 mg/ml) […] noch […] auf (maximal 85 %), ohne […] von 2 mg/ml einsetzen. Durch Ersatz des ^14[…] durch […] vor der Bildung von Mevalonat lag; Hemmwirkungen, die zu einer Verschiebung des Musters der Vorläufersterine des Cholesterin […]. Die Aktivität der HMG-CoA-Reduktase, des Schlüsselenzyms der Cholesterinsynthese, wird somit indirekt über […] oder […] des Enzyms gedrosselt.

| Compound | lipidsenkende Wirkung im Tierversuch [1] | Neusynthese von Cholesterin in den Leberzellen ([2]; 14C-acetate incorporation, cultured rat hepatocytes) | Hemmung der Cholesterinneusynthese ([2]; concentrations that are maximally achievable in artichoke leaf extract preparations) |
| --- | --- | --- | --- |
| Luteolin-7-Glycosid | lipidsenkende Wirkung |  |  |
| O=c1cc(-c2ccc(O)c(O)c2)oc2cc(O)cc(O)c12 [Luteolin, 31,41,5-Tetrahydroxyflavon] | lipidsenkende Wirkung | konzentrationsabhängig die Neusynthese von Cholesterin in den Leberzellen vermindern |  |
| O=C(/C=C/c1ccc(O)c(O)c1)O[C@@H]1C[C@@](OC(=O)/C=C/c2ccc(O)c(O)c2)(C(=O)O)C[C@@H](O)[C@@H]1O [Cynarin, 1,5-Di-Caffeoyl-D-Chinasäure, reference compound] |  |  | keinerlei Hemmung |
